Test results from patent publication US20220323406A1, “METHODS AND COMPOSITIONS FOR DIFFERENTIATING STEM CELLS” (Massachusetts Institute of Technology, priority 2019, published 2022).
Where a name gives a salt, the structure may show the parent alone.

What was measured:
[1] = test system: ENR+CD organoids (ISC to Paneth cell differentiation); assay: Primary screen: CCh-stimulated lysozyme secretion LYZ.S, 2.5-D 384-well ENR+CD organoid differentiation; type: cell-based, mouse; details: primary screen
From the text: (§1) High-throughput screening.

[2] = test system: ENR+CD organoids (ISC to Paneth cell differentiation); assay: Primary screen: basal (non-stimulated) lysozyme secretion LYZ.NS, 2.5-D 384-well ENR+CD organoid differentiation; type: cell-based, mouse; details: primary screen; for Z.LYZ.NS: standard z score
From the text: as §1

ENR+CD organoids = assay: Primary screen: ATP (CellTiter-Glo 3D, CTG) cell number/viability, 2.5-D 384-well ENR+CD organoids; details: primary screen; for Z.CTG: standard z score;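 on all read-outs here: compounds given at plating and again on day 3 over a 6-day differentiation from ENR+CV stem-cell-enriched precursors, ATP measured on day 6, plate median as control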

Structure (SMILES): COc1ccccc1OCCNCC(O)COc1cccc2[nH]c3ccccc3c12 (stereo not drawn) [Carvedilol]
- Dose.FC.LYZ.S ([1]; dose 0.08 uM): −0.009 log2 fold change
- Dose.FC.LYZ.S ([1]; dose 0.40 uM): −0.079 log2 fold change
- Dose.FC.LYZ.S ([1]; dose 2.00 uM): −0.087 log2 fold change
- Dose.FC.LYZ.S ([1]; dose 10.00 uM): 0.019 log2 fold change
- Dose.FC.LYZ.NS ([2]; dose 0.08 uM): 0.002 log2 fold change
- Dose.FC.LYZ.NS ([2]; dose 0.40 uM): −0.020 log2 fold change
- Dose.FC.LYZ.NS ([2]; dose 2.00 uM): 0.099 log2 fold change
- Dose.FC.LYZ.NS ([2]; dose 10.00 uM): −0.053 log2 fold change
- Z.LYZ.NS ([2]; dose 0.08 uM): 0.021
- Z.LYZ.NS ([2]; dose 0.40 uM): −0.175
- Z.LYZ.NS ([2]; dose 2.00 uM): 0.866
- Z.LYZ.NS ([2]; dose 10.00 uM): −0.464
- Dose.FC.CTG (ENR+CD organoids; dose 0.08 uM): 0.057 log2 fold change
- Dose.FC.CTG (ENR+CD organoids; dose 0.40 uM): −0.014 log2 fold change
- Dose.FC.CTG (ENR+CD organoids; dose 2.00 uM): −0.151 log2 fold change
- Dose.FC.CTG (ENR+CD organoids; dose 10.00 uM): −0.242 log2 fold change

Structure (SMILES): Cc1ccc(-c2cc(C(F)(F)F)nn2-c2ccc(S(N)(=O)=O)cc2)cc1 [Celecoxib]
- Dose.FC.LYZ.S ([1]; dose 0.08 uM): −0.067 log2 fold change
- Dose.FC.LYZ.S ([1]; dose 0.40 uM): −0.068 log2 fold change
- Dose.FC.LYZ.S ([1]; dose 2.00 uM): −0.097 log2 fold change
- Dose.FC.LYZ.S ([1]; dose 10.00 uM): −0.133 log2 fold change
- Dose.FC.LYZ.NS ([2]; dose 0.08 uM): −0.041 log2 fold change
- Dose.FC.LYZ.NS ([2]; dose 0.40 uM): −0.053 log2 fold change
- Dose.FC.LYZ.NS ([2]; dose 2.00 uM): −0.084 log2 fold change
- Dose.FC.LYZ.NS ([2]; dose 10.00 uM): −0.099 log2 fold change
- Z.LYZ.NS ([2]; dose 0.08 uM): −0.359
- Z.LYZ.NS ([2]; dose 0.40 uM): −0.463
- Z.LYZ.NS ([2]; dose 2.00 uM): −0.734
- Z.LYZ.NS ([2]; dose 10.00 uM): −0.865
- Dose.FC.CTG (ENR+CD organoids; dose 0.08 uM): −0.034 log2 fold change
- Dose.FC.CTG (ENR+CD organoids; dose 0.40 uM): −0.299 log2 fold change
- Dose.FC.CTG (ENR+CD organoids; dose 2.00 uM): −0.118 log2 fold change
- Dose.FC.CTG (ENR+CD organoids; dose 10.00 uM): −0.128 log2 fold change

Structure (SMILES): COc1ccc([C@]2(C#N)CC[C@@H](C(=O)O)CC2)cc1OC1CCCC1 [Cilomilast]
- Dose.FC.LYZ.S ([1]; dose 0.08 uM): 0.115 log2 fold change
- Dose.FC.LYZ.S ([1]; dose 0.40 uM): −0.109 log2 fold change
- Dose.FC.LYZ.S ([1]; dose 2.00 uM): −0.083 log2 fold change
- Dose.FC.LYZ.S ([1]; dose 10.00 uM): −0.045 log2 fold change
- Dose.FC.LYZ.NS ([2]; dose 0.08 uM): 0.114 log2 fold change
- Dose.FC.LYZ.NS ([2]; dose 0.40 uM): −0.037 log2 fold change
- Dose.FC.LYZ.NS ([2]; dose 2.00 uM): −0.010 log2 fold change
- Dose.FC.LYZ.NS ([2]; dose 10.00 uM): −0.043 log2 fold change
- Z.LYZ.NS ([2]; dose 0.08 uM): 0.995
- Z.LYZ.NS ([2]; dose 0.40 uM): −0.321
- Z.LYZ.NS ([2]; dose 2.00 uM): −0.083
- Z.LYZ.NS ([2]; dose 10.00 uM): −0.376
- Dose.FC.CTG (ENR+CD organoids; dose 0.08 uM): −0.334 log2 fold change
- Dose.FC.CTG (ENR+CD organoids; dose 0.40 uM): −0.338 log2 fold change
- Dose.FC.CTG (ENR+CD organoids; dose 2.00 uM): −0.235 log2 fold change
- Dose.FC.CTG (ENR+CD organoids; dose 10.00 uM): −0.192 log2 fold change

Structure (SMILES): C[C@@H](NCCCc1cccc(C(F)(F)F)c1)c1cccc2ccccc12 [Cinacalcet HCl]
- Dose.FC.LYZ.S ([1]; dose 0.08 uM): −0.084 log2 fold change
- Dose.FC.LYZ.S ([1]; dose 0.40 uM): 0.039 log2 fold change
- Dose.FC.LYZ.S ([1]; dose 2.00 uM): −0.025 log2 fold change
- Dose.FC.LYZ.S ([1]; dose 10.00 uM): −0.130 log2 fold change
- Dose.FC.LYZ.NS ([2]; dose 0.08 uM): −0.062 log2 fold change
- Dose.FC.LYZ.NS ([2]; dose 0.40 uM): −0.023 log2 fold change
- Dose.FC.LYZ.NS ([2]; dose 2.00 uM): −0.022 log2 fold change
- Dose.FC.LYZ.NS ([2]; dose 10.00 uM): −0.091 log2 fold change
- Z.LYZ.NS ([2]; dose 0.08 uM): −0.536
- Z.LYZ.NS ([2]; dose 0.40 uM): −0.202
- Z.LYZ.NS ([2]; dose 2.00 uM): −0.189
- Z.LYZ.NS ([2]; dose 10.00 uM): −0.790
- Dose.FC.CTG (ENR+CD organoids; dose 0.08 uM): −0.444 log2 fold change
- Dose.FC.CTG (ENR+CD organoids; dose 0.40 uM): −0.298 log2 fold change
- Dose.FC.CTG (ENR+CD organoids; dose 2.00 uM): −0.012 log2 fold change
- Dose.FC.CTG (ENR+CD organoids; dose 10.00 uM): −0.451 log2 fold change

Structure (SMILES): CN1CCC[C@@H]1CCO[C@](C)(c1ccccc1)c1ccc(Cl)cc1 [Clemastine Fumarate]
- Dose.FC.LYZ.S ([1]; dose 0.08 uM): 0.096 log2 fold change
- Dose.FC.LYZ.S ([1]; dose 0.40 uM): −0.066 log2 fold change
- Dose.FC.LYZ.S ([1]; dose 2.00 uM): −0.048 log2 fold change
- Dose.FC.LYZ.S ([1]; dose 10.00 uM): 0.001 log2 fold change
- Dose.FC.LYZ.NS ([2]; dose 0.08 uM): 0.024 log2 fold change
- Dose.FC.LYZ.NS ([2]; dose 0.40 uM): −0.026 log2 fold change
- Dose.FC.LYZ.NS ([2]; dose 2.00 uM): −0.014 log2 fold change
- Dose.FC.LYZ.NS ([2]; dose 10.00 uM): −0.061 log2 fold change
- Z.LYZ.NS ([2]; dose 0.08 uM): 0.210
- Z.LYZ.NS ([2]; dose 0.40 uM): −0.227
- Z.LYZ.NS ([2]; dose 2.00 uM): −0.124
- Z.LYZ.NS ([2]; dose 10.00 uM): −0.534
- Dose.FC.CTG (ENR+CD organoids; dose 0.08 uM): 0.242 log2 fold change
- Dose.FC.CTG (ENR+CD organoids; dose 0.40 uM): 0.036 log2 fold change
- Dose.FC.CTG (ENR+CD organoids; dose 2.00 uM): 0.024 log2 fold change
- Dose.FC.CTG (ENR+CD organoids; dose 10.00 uM): −0.424 log2 fold change
- Z.CTG (ENR+CD organoids; dose 0.08 uM): 0.578
- Z.CTG (ENR+CD organoids; dose 0.40 uM): 0.086
- Z.CTG (ENR+CD organoids; dose 2.00 uM): 0.058
- Z.CTG (ENR+CD organoids; dose 10.00 uM): −1.013
